Data as given in patent publication US20250326741A1, “GLUCOSE-DEPENDENT INSULINOTROPIC POLYPEPTIDE RECEPTOR ANTAGONISTS AND USES THEREOF” (Pfizer Inc., priority 2024, published 2025).

molecular target: T1, human Glucose-dependent Insulinotropic Polypeptide Receptor (hGIPR) (Homo sapiens, UniProt P48546); experiment: Functional in vitro GIPR antagonist potency assay (intracellular cAMP, HTRF, hGIP stimulation at EC80); assay type: cell-based; conditions: not given
T1 sequence (P48546 22-466): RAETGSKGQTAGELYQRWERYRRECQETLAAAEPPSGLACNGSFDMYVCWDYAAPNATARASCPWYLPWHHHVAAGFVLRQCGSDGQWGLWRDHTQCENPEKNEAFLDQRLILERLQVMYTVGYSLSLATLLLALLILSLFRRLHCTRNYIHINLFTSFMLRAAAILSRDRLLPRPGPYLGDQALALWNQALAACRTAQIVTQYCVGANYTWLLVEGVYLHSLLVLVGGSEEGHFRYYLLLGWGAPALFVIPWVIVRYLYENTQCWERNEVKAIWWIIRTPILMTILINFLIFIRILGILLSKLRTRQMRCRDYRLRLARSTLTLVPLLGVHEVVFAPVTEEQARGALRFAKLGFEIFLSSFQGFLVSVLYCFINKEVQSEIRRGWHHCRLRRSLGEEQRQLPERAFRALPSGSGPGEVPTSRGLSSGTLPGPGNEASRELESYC
Protocol: Example AA. Functional In Vitro GIPR Antagonist Potency Assay
The functional in vitro antagonist potency for test compounds was determined by monitoring intracellular cyclic adenosine monophosphate (cAMP) levels in Chinese hamster ovary (CHO)—K1 cells stably expressing the human Glucose-dependent Insulinotropic Polypeptide Receptor (hGIPR). Following agonist activation, hGIPR associates with the G-protein complex causing the Gas subunit to exchange bound guanosine diphosphate (GDP) for guanosine triphosphate (GTP), followed by dissociation of the Gas-GTP complex. The activated Gas subunit can couple to downstream effectors to regulate the levels of second messengers or cAMP within the cell. Thereby, determination of intracellular cAMP levels allows for pharmacological characterization. Intracellular cAMP levels are quantitated using a homogenous assay utilizing the Homogeneous Time Resolved Fluorescence (HTRF) technology from Perkin Elmer. The method is a competitive immunoassay between native cAMP produced by the cells and cAMP labelled with the acceptor dye, d2. The two entities compete for binding to a monoclonal anti-cAMP antibody labeled with cryptate. The specific signal is inversely proportional to the concentration of cAMP in the cells.
Test compounds were solubilized to a concentration of 30 mM in 100% dimethyl sulfoxide (DMSO). An 11-point dilution series using 1 in 3.162-fold serial dilutions was created in 100% DMSO with a top concentration of 8 mM. The serially diluted compound was spotted with an Echo Acoustic liquid handler (Beckman Coulter) into a 384-well assay plate (Corning, Cat No. 3824) at 50 nL/well with duplicate points at each concentration, at a 200× final assay concentration (FAC). The final compound concentration range in the assay was 40 μM to […], with a final DMSO concentration of 0.5%.
Frozen assay-ready vials (at 1×10^7 cells/vial) of CHO-K1 cells stably expressing the Gs-coupled human GIPR receptor (Eurofins, DiscoverX, Cat No. 95-0146C2) were thawed, counted, and resuspended in assay buffer consisting of Hank's Balanced Salt Solution (HBSS, Lonza Cat No. 10-527) containing 20 mM (4-(2-hydroxyethyl)-1-piperazineethanesulfonic acid (HEPES, Lonza, Cat No. 17-737E), 0.1% bovine serum albumin (BSA, Sigma, Cat No. A7979), and 200 μM 3-isobutyl-1-methylxanthine (IBMX, Sigma, Cat No. 15879) at a density of 4×10^5 cells/mL. Cells were added to assay plate (5 μL/well of 4×10^5 cells/mL stock for 2,000 cells/well final) containing 50 nL of 200×FAC test compound, and incubated at 37° C. (95% O2: 5% CO2) for 2 hours, with micro-clime lids (Labcyte, Cat No. LLS-0310). Following the 2-hour cell and compound incubation, a stimulation mix comprised of hGIPR agonist human glucose-dependent insulinotropic polypeptide (hGIP, full length, Sigma Cat No. G2269) in assay buffer/0.1% DMSO was added to the assay plate (5 μL/well) at an estimated EC80 FAC (based on previous hGIP agonist curves) and incubated for another 30 minutes with micro-clime lids at 37° C. (95% O2: 5% CO2), after which intracellular cAMP levels were quantified as per Perkin Elmer's protocol (5 μL of d2 and then 5 μL cryptate, incubated for 1 hour at room temperature). Emission spectra of samples were measured on a Pherastar plate reader (BMG Labtech Inc) using a HTRF protocol (excitation, 320 nm; emission, 665 nm/620 nm).
(95% O2: 5% CO2), with a micro-clime lid. Following the 2-hour cell and DMSO incubation, a hGIP concentration response curve at 2×FAC (12-point curve using 1 in 3 serial dilutions, with triplicate points at each concentration, 100 nM final top concentration) in assay buffer/1% DMSO was added (5 μL/well) and incubated for a further 30 minutes with a micro-clime lid at 37° C. (95% O2: 5% CO2), after which intracellular cAMP levels were quantified and samples measured as described previously. Experiments passed quality control if the agonist concentration used for stimulation fell between the on-the-day EC50-EC90. […]

Structure (SMILES) | IC50 [nM]
Cc1cc(-n2ccc(NC(=O)[C@H]3CCCN3C(=O)Nc3ccc(C(F)(F)F)c(F)c3)n2)ccc1C(=O)O [Example 9, 4-{3-[(1-{[3-Fluoro-4-(trifluoromethyl)phenyl]carbamoyl}-D-prolyl)amino]-1H-pyrazol-1-yl}-2-methylbenzoic Acid] | 19

same assay, conditions: geometric mean; CHO-K1 cells stably expressing human GIPR, cAMP after hGIP stimulation at EC80

Structure (SMILES) | IC50 [nM]
Cc1cc(-n2ccc(NC(=O)[C@H]3CCCN3C(=O)COc3ccc(OC(F)(F)F)cc3)n2)ccc1C(=O)O [Example 63, 2-methyl-4-{3-[(1-{[4-(trifluoromethoxy)phenoxy]acetyl}-D-prolyl)amino]-1H-pyrazol-1-yl}benzoic acid] | 46
Cc1cc(-n2ccc(NC(=O)[C@H]3CCCN3C(=O)Nc3ccc(OC(F)(F)F)cc3)n2)ccc1C(N)=O [Example 41] | 98
Cc1cc(NC(=O)N2CCC[C@@H]2C(=O)Nc2ccn(-c3ccc(C(=O)O)cc3)n2)ncc1C(C)C [Example 30, 4-{3-[(1-{[4-methyl-5-(propan-2-yl)pyridin-2-yl]carbamoyl}-D-prolyl)amino]-1H-pyrazol-1-yl}benzoic acid] | 250
Cc1cc(-n2ccc(NC(=O)[C@H]3CCCN3C(=O)CNc3ccc(C(F)(F)F)cc3)n2)ccc1C(N)=O [Example 61, N-[4-(trifluoromethyl)phenyl]glycyl-N-[1-(4-carbamoyl-3-methylphenyl)-1H-pyrazol-3-yl]-D-prolinamide] | 450
Cc1cc(-n2ccc(NC(=O)[C@H]3CCCN3C(=O)COc3ccc(C(F)(F)F)cc3)n2)ccc1C(N)=O [Example 60, N-[1-(4-carbamoyl-3-methylphenyl)-1H-pyrazol-3-yl]-1-{[4-(trifluoromethyl)phenoxy]acetyl}-D-prolinamide] | 210
Cc1c(C(=O)O)ccc(-n2ccc(NC(=O)[C@H]3CCCN3C(=O)Nc3ccc(C(F)(F)F)cc3)n2)c1F [Example 66, 3-fluoro-2-methyl-4-{3-[(1-{[4-(trifluoromethyl)phenyl]carbamoyl}-D-prolyl)amino]-1H-pyrazol-1-yl}benzoic acid] | 54
O=C(O)c1ccc(-n2ccc(NC(=O)[C@H]3CCCN3C(=O)Nc3ccc(C(F)(F)F)cc3)n2)nc1 [Example 27, 6-{3-[(1-{[4-(trifluoromethyl)phenyl]carbamoyl}-D-prolyl)amino]-1H-pyrazol-1-yl}pyridine-3-carboxylic acid] | 74
Cc1cc(C(=O)O)ccc1-n1ccc(NC(=O)[C@H]2CCCN2C(=O)Nc2ccc(C(C)C)cc2)n1 [Example 25, 3-methyl-4-{3-[(1-{[4-(propan-2-yl)phenyl]carbamoyl}-D-prolyl)amino]-1H-pyrazol-1-yl}benzoic acid] | 98
Cc1cc(-n2ccc(NC(=O)[C@H]3CCCN3C(=O)COc3ccc(C(F)(F)F)c(F)c3)n2)ccc1C(=O)O [Example 67, 4-{3-[(1-{[3-fluoro-4-(trifluoromethyl)phenoxy]acetyl}-D-prolyl)amino]-1H-pyrazol-1-yl}-2-methylbenzoic acid] | 61
Cc1cc(-n2ccc(NC(=O)[C@H]3CCCN3C(=O)Nc3ccc(Cl)c(C(F)(F)F)c3)n2)ccc1C(=O)O [Example 46, 4-{3-[(1-{[4-chloro-3-(trifluoromethyl)phenyl]carbamoyl}-D-prolyl)amino]-1H-pyrazol-1-yl}-2-methylbenzoic acid] | 75
Cc1cc(-n2ccc(NC(=O)[C@H]3CCCN3C(=O)Nc3ccc(C(F)(F)F)c(C)c3)n2)ccc1C(=O)O [Example 38, 2-methyl-4-{3-[(1-{[3-methyl-4-(trifluoromethyl)phenyl]carbamoyl}-D-prolyl)amino]-1H-pyrazol-1-yl}benzoic acid] | 28
Cc1cc(-n2ccc(NC(=O)[C@H]3CCCN3C(=O)COc3ccc(C(F)(F)F)cc3)n2)ccc1C(=O)O [Example 17, 2-Methyl-4-{3-[(1-{[4-(trifluoromethyl)phenoxy]acetyl}-D-prolyl)amino]-1H-pyrazol-1-yl}benzoic Acid] | 36
CC(C)c1ccc(NC(=O)N2CCC[C@@H]2C(=O)Nc2ccn(-c3ccc(C(N)=O)cc3)n2)cc1F [Example 57] | 120
Cc1cc(-n2ccc(NC(=O)[C@H]3CCCN3C(=O)Nc3ccc(OC(F)(F)F)cc3)n2)c(F)cc1C(=O)O [Example 59, 5-Fluoro-2-methyl-4-{3-[(1-{[4-(trifluoromethoxy)phenyl]carbamoyl}-D-prolyl)amino]-1H-pyrazol-1-yl}benzoic Acid] | 11
Cc1cc(-n2ccc(NC(=O)[C@H]3CCCN3C(=O)Nc3ccc(C(C)C)c(F)c3)n2)ccc1C(N)=O [Example 16, (2R)—N^2-[1-(4-Carbamoyl-3-methylphenyl)-1H-pyrazol-3-yl]-N^1-[3-fluoro-4-(propan-2-yl)phenyl]pyrrolidine-1,2-dicarboxamide] | 110
Cc1cc(-n2ccc(NC(=O)[C@H]3CCCN3C(=O)CNc3ccc(C(F)(F)F)cc3)n2)ccc1C(=O)O [Example 19, N-[4-(Trifluoromethyl)phenyl]glycyl-N-[1-(4-carboxy-3-methylphenyl)-1H-pyrazol-3-yl]-D-prolinamide] | 78
Cc1cc(-n2ccc(NC(=O)[C@H]3CCCN3C(=O)Nc3ccc(C4CCC4)cc3)n2)ccc1C(=O)O [Example 42, 4-[3-({1-[(4-cyclobutylphenyl)carbamoyl]-D-prolyl}amino)-1H-pyrazol-1-yl]-2-methylbenzoic acid] | 12
CC(C)c1ccc(NC(=O)N2CCC[C@@H]2C(=O)Nc2ccn(-c3ccc(C(N)=O)cc3F)n2)cc1 [Example 36] | 42
CC(C)c1ccc(NC(=O)N2CCC[C@@H]2C(=O)Nc2ccn(-c3ccc(C(=O)O)cn3)n2)cc1 [Example 21, 6-{3-[(1-{[4-(propan-2-yl)phenyl]carbamoyl}-D-prolyl)amino]-1H-pyrazol-1-yl}pyridine-3-carboxylic acid] | 50
CC(C)c1ccc(NC(=O)N2CCC[C@@H]2C(=O)Nc2ccn(-c3ccc(C(N)=O)cc3)n2)cc1 [Example 35] | 120
C=C(C)c1ccc(NC(=O)N2CCC[C@@H]2C(=O)Nc2ccn(-c3ccc(C(=O)O)c(C)c3)n2)cc1C [Example 58, 2-methyl-4-{3-[(1-{[3-methyl-4-(prop-1-en-2-yl)phenyl]carbamoyl}-D-prolyl)amino]-1H-pyrazol-1-yl}benzoic acid] | 8.8
Cc1cc(NC(=O)N2CCC[C@@H]2C(=O)Nc2ccn(-c3ccc(C(=O)O)cn3)n2)ccc1C(C)C [Example 28, 6-{3-[(1-{[3-methyl-4-(propan-2-yl)phenyl]carbamoyl}-D-prolyl)amino]-1H-pyrazol-1-yl}pyridine-3-carboxylic acid] | 29
Cc1cc(-n2ccc(NC(=O)[C@H]3CCCN3C(=O)Nc3ccc(OC(F)F)cc3)n2)ccc1C(=O)O [Example 56, 4-{3-[(1-{[4-(difluoromethoxy)phenyl]carbamoyl}-D-prolyl)amino]-1H-pyrazol-1-yl}-2-methylbenzoic acid] | 310
